Measured values: patent publication US6432883B1, “Methods of treating plants with glycolic acid” (Emerald BioAgriculture Corporation, priority 2000, dated 2002)
Marks after values point to notes of the source that are not given here.

Assays:
[1] = tested on: Sclerotinia minor; experiment: Lettuce pathogen stress: spray treatment, then stem inoculation, disease severity rating; assay type: in vivo; settings: for Disease Severity Rating: lettuce, 1-9 rating scale
Experimental: Waldmann's MTO dark green Grand Rapids leaf lettuce seed, lot#15529, was purchased from Johnny's Selected Seeds, Albion, Me., and grown 8 plants per 1 gallon pot, 1 pot per experimental unit and 3 experimental units per each of 4 replications. The plants were spray-treated first following “row closure” and again 14 days later with 8 ml per pot. The pathogen stress (Sclerotinia minor hyphal fragments and sclerotia, cultured on potato dextrose agar) was applied to the plant stems at the soil/stem interface at 14 days following the second treatment application.
Treatments consisted of non-inoculated and inoculated groups of non-treated (NTC), water and 0.05% surfactant-blank (SB) controls and 15 and 60 ppm of glycolic acid.
Disease assessment was made just prior to harvest by means of a 1-9 based rating scale. Extensive decomposition of the controls made accurate yield fresh and dry weights impossible. The results in Table 1 below show the data for each treatment and the rating scale definitions.

[2] = tested on: Sclerotinia minor; experiment: Excised lettuce leaves, post-harvest pathogen stress: disease index; assay type: in vivo; settings: for Disease Index [(severity)(% incidence)/100]: 3 days post-inoculation
Excerpt: Waldmann's MTO dark green Grand Rapids leaf lettuce seed, lot# 15529, was purchased from Johnny's Selected Seeds, Albion, Me., and broadcast seeded into 10×20×2′ flats. Circular steel-blue blotter papers (Anchor Paper Co, St. Paul, Minn.) were fitted into disposable petri dishes. Treatments consisted of non-inoculated and inoculated groups of non-treated (NTC), water and 0.01% surfactant-blank (SB) controls and 10, 25, 75,150, 500 and 1000 ppm of glycolic acid.
Blotters were saturated with 4.5 ml sterile tap water. Individual leaves (20) were excised and placed into a treatment solution for 5 seconds or left non-treated. Excess fluid was removed from the leaf surface. These leaves were then placed singly, 1 leaf per dish and adaxial side up, on the moist blotters. Dish lids were replaced and dishes stacked, bagged and returned to the petri dish box for 24 hours dark storage at room temperature (68-72° F.).
Inoculum (Sclerotinia minor hyphal fragments and sclerotia) was grown on potato dextrose agar (PDA) plates until the sclerotia were black and hard. These were blended into a paste with non-inoculated PDA and sterile tap water. A small spot of inoculum paste containing hyphal fragments and 2-3 sclerotia was dotted onto the center of 16 of the 20 leaf pieces per treatment stack 24 hours after test substance application.
Due to the nature of Sclerotinia as a pathogen, disease is generally an all-or-nothing phenomenon. Therefore, it is necessary to assess both disease incidence and disease severity to give an accurate representation of the disease progression. Disease severity assessment was made at 3 days±2 hours post-inoculation by measuring the radius of colonized tissue in mm. Disease incidence was assessed as the presence or absence of infection (number of diseased leaves/ number of leaves tested) 100=% incidence. Multiplying the average severity by the % incidence and dividing by 100 then combined both evaluations into one assessment number and created a disease index value. The results in Table 5 below show this value for each treatment.

[3] = tested on: Sclerotinia minor; experiment: Colony radius of plant pathogen on amended potato dextrose agar; assay type: cell-based; settings: in PDA, 4 days, about 23° C., FIG. 5
Excerpt: Sclerotinia minor culture SaM-18 was received from Krishna Subbarro, Ph.D., Univ. Calif., Davis. Potato dextrose agar (PDA) powder was purchased from Baltimore Biological Laboratory, Inc. (BBL), ammonium glycolate and glycolic acid from DuPont Specialty Chemicals and BreakThru® surfactant from Goldschmidt Chemical Corp.
PDA was made, poured into sterile disposable petri dishes (100×15 mm) and inoculated with S. minor sclerotia to start new cultures on day zero. These cultures had reached an appropriate stage of maturation for use for use in the test after two weeks of growth. Multiple 1 liter containers of PDA were made and autoclaved on day 14. These PDA containers remained in the circulating water bath at 46° C. until the solutions were ready for addition (about 2 hrs.). The glycolic acid-containing compositions were added to the 46° C. PDA through a syringe-tip 0.2 μm-pore sterile filtration disc in a positive laminar-flow sterile hood and thoroughly mixed before returning to the 46° C. water bath to await pouring. Stacks of 22 dishes were poured for each medium type and allowed to solidify and cool overnight.
On day 15, soft, white to gray, sclerotial clumps of hyphae were picked from the culture dishes with heat sterilized forceps and one clump was transferred to the center of each test medium dish. Twenty dishes of each inoculated medium were stacked and replaced into the plastic sleeves they were originally packaged in for incubation at room temperature (about 23° C.). After 4 days of growth, some of the cultures had just reached the edges of the medium. The radius of each colony was measure in mm.
Treatments were water controls, 0.05% surfactant controls, 5, 15, 50, 75 and 100 ppm of glycolic acid (F12) and 5, 15, 50, 100 and 750 ppm of ammonia-neutralized glycolic acid (F18; i.e., ammonium glycolate).

[4] = tested on: Sclerotinia minor; experiment: Cabbage pathogen stress: disease severity rating, fresh and dry weights; assay type: in vivo; settings: for Dry Weight / Fresh Weight: cabbage under pathogen stress; for Disease Severity Rating: cabbage, 1-9 rating scale
Experimental: Market Prize, F1 cabbage seed, lot 88955, was purchased from Harris Seeds, Inc., Rochester, N.Y. These were grown 8 plants per 1 gallon pot, 1 pot per experimental unit and 3 experimental units per each of 3 replications. The plants were spray-treated first at 4 true leaves and again 14 days later with 8 ml per pot. The pathogen stress (Sclerotinia minor hyphal fragments and sclerotia, cultured on potato dextrose agar) was applied to the plant stems at the soil/stem interface at 4 days following the second treatment application.
Treatments consisted of non-inoculated and inoculated groups of non-treated (NTC), water and 0.05% surfactant-blank (SB) controls and 1, 5, 10, 25, 37.5 and 75 ppm of glycolic acid.
Disease assessment was made just prior to harvest by means of a 1-9 based rating scale. Each plant was harvested at the soil line for yield fresh and dry weights. The results in Table 2 below show the data for each treatment and the rating scale definitions.

O=C(O)CO [glycolic acid]
Disease Severity Rating ([1]; 15 ppm spray): 3.0*
Disease Severity Rating ([1]; 60 ppm spray): 3.5*
disease severity versus control lettuce ([1]; all glycolic acid treatments (15 and 60 ppm), α=0.05): statistically significant (α=0.05) decrease
Disease Index [(severity)(% incidence)/100] ([2]; 10 ppm leaf dip): 1.2
disease severity versus control lettuce ([2]; 25 ppm and 75 ppm, lettuce leaves, α=0.05): statistically significant (α=0.05) decrease
Disease Index [(severity)(% incidence)/100] ([2]; 25 ppm leaf dip): 0.1*
Disease Index [(severity)(% incidence)/100] ([2]; 75 ppm leaf dip): 0.5*
Disease Index [(severity)(% incidence)/100] ([2]; 150 ppm leaf dip): 1.3
Disease Index [(severity)(% incidence)/100] ([2]; 500 ppm leaf dip): 1.1
Disease Index [(severity)(% incidence)/100] ([2]; 1000 ppm leaf dip): 2.0
growth of Sclerotinia minor (colony radius) compared to controls [3]: statistically significantly increased the growth
Dry Weight ([4]; 1 ppm spray): 38.3 g
Fresh Weight ([4]; 1 ppm spray): 359 g
Disease Severity Rating ([4]; 1 ppm spray): 3.6
Dry Weight ([4]; 5 ppm spray): 39.8 g
Fresh Weight ([4]; 5 ppm spray): 346 g
Disease Severity Rating ([4]; 5 ppm spray): 3.7
Dry Weight ([4]; 10 ppm spray): 40.9 g
Fresh Weight ([4]; 10 ppm spray): 342 g
Disease Severity Rating ([4]; 10 ppm spray): 2.8
Dry Weight ([4]; 25 ppm spray): 39.1 g
Fresh Weight ([4]; 25 ppm spray): 364 g
Disease Severity Rating ([4]; 25 ppm spray): 2.2
disease severity versus control ([4]; 37.5 and 75 ppm, α=0.05): statistically significant (α=0.05) decrease
fresh weight versus control ([4]; 37.5 ppm): statistically significant increase
Dry Weight ([4]; 37.5 ppm spray): 39.0 g
Fresh Weight ([4]; 37.5 ppm spray): 381* g
Disease Severity Rating ([4]; 37.5 ppm spray): 1.7*
dry weight versus control ([4]; 75 ppm): statistically significant increase
Dry Weight ([4]; 75 ppm spray): 41.5* g
Fresh Weight ([4]; 75 ppm spray): 354 g
Disease Severity Rating ([4]; 75 ppm spray): 2.0*
